{
  "source": "patent US20260364081A1",
  "about": "“METHOD FOR PREVENTING OR TREATING ATTENTION DEFICIT HYPERACTIVITY DISORDER (ADHD) AND FOR PREPARING A COMPOUND OR SALT THEREOF” (ASTROGEN, INC., priority 2023, published 2026)",
  "key": {"norepinephrine receptor": {"molecular_target": "norepinephrine receptor (Homo sapiens, UniProt P23975)", "sequence (P23975 whole entry)": "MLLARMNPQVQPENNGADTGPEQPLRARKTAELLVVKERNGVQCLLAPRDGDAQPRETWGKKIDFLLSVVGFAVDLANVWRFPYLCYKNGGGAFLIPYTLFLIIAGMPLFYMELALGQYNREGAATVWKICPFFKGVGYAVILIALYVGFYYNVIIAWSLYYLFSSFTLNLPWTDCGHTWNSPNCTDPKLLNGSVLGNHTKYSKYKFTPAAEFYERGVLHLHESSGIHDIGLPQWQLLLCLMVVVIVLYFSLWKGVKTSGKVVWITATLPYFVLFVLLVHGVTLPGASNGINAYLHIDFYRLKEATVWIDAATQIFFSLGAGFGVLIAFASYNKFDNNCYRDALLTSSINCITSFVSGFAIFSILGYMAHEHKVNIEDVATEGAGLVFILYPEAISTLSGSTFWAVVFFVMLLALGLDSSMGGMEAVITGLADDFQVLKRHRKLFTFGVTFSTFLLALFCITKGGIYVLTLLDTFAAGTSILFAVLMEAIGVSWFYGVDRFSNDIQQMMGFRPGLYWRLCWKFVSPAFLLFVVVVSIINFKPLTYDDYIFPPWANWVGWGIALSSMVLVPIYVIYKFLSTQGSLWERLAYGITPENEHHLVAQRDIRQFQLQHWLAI", "details": "read-out: norepinephrine reuptake inhibition IC50, HEK-293T cells stably expressing the norepinephrine receptor, 30 min drug incubation, 37 °C, 30 min kinetic fluorescence reading", "procedure": "The norepinephrine reuptake ability in a cell line expressing the norepinephrine receptor was confirmed using a kit (Neurotransmitter Transporter Uptake Assay Kit, Molecular Devices) composed of a fluorescent material that mimics amine neurotransmitters and a masking dye.\nFirst, HEK-293T cells stably expressing the norepinephrine receptor were seeded in a 96-well Black/Clear Bottom Plate to contain 6×10^4 cells in 100 μl of cell culture medium per well. After incubating for 20 hours in a 37 °C, 5% CO2 incubator to allow the cells to properly attach and stabilize on the plate, the cell culture medium was removed, and 100 μl of an HBSS+0.1% BSA with 20 mM HEPES aqueous solution in which a drug of a target concentration was dissolved was dispensed into each well. For the control group, 100 μl of a drug-free buffer solution (HBSS+0.1% BSA with 20 mM HEPES aqueous solution) was dispensed. The plate was incubated for 30 minutes in a 37 °C, 5% CO2 incubator to allow the drug to sufficiently react with the receptor.\nThereafter, fluorescence was measured for a total of 30 minutes in Kinetic reading mode at Ex/Em=440 nm/520 nm using a fluorescence plate reader (SpectraMax®). The measured fluorescence intensity value was converted into a value of “reuptake inhibition rate (%)” using the following formula, and then a dose-response curve was plotted through 4-parameter (Log) logistic regression, and the IC50 value for each drug was calculated and compared (FIGS. 4 and 5)."}, "[1]": {"assay": "Thermal stability test (content by HPLC, visual discoloration)", "format": "physicochemical", "details": "for Content after 8 weeks / Content at 0 weeks / remaining at 1344 h: HPLC; for Content after 8 weeks / remaining at 1344 h: 8 weeks at 40±2 °C and 75±5% RH, opaque glass vials; for Content after 8 weeks: 80640 min; for Content at 0 weeks: start of storage at 40±2 °C and 75±5% RH; for remaining at 1344 h: solid, 75% rh, read-out: Content after 8 weeks; for Discoloration: visual, after 8 weeks at 40±2 °C and 75±5% RH", "procedure": "8 mg each of the viloxazine hydrochloride of Comparative Examples 1 and 2, and the novel salts of (S)-viloxazine of Examples 6 to 16 were placed into opaque glass vials and stored at 40±2 °C and 75±5% RH. After 8 weeks, each sample was taken out, its content was analyzed by high-performance liquid chromatography (HPLC), and the presence of discoloration was visually confirmed (Table 2)."}, "CYP2D6": {"system": "CYP2D6", "details": "background statement; cited from earlier work"}, "5HT2B receptor": {"system": "5HT2B receptor", "details": "background statement; cited from earlier work"}, "[2]": {"details": "cited from earlier work"}, "[3]": {"details": "background statement; cited from earlier work"}, "[4]": {"system": "attention-deficit/hyperactivity disorder (ADHD)", "details": "clinical trials, patients with ADHD, versus placebo; cited from earlier work"}, "norepinephrine reuptake": {"system": "norepinephrine reuptake", "details": "background statement, cited from earlier work"}, "dopamine": {"system": "dopamine", "details": "background statement; cited from earlier work"}, "5-HT2C receptor": {"system": "5-HT2C receptor", "details": "background statement; cited from earlier work"}},
  "note": "Structures can show the parent of a compound that is named as a salt. Where two headings read alike, the source gives them in different places.",
  "data": [
    {"compound": "CCOc1ccccc1OC[C@@H]1CNCCO1", "note": "[Example 9, (S)-viloxazine nitrate]", "values": [
      {"measurement": "IC50", "setting": "norepinephrine receptor", "value": 42, "unit": "µM"},
      {"measurement": "Content after 8 weeks", "setting": "[1]", "value": 97.7, "unit": "%"},
      {"measurement": "Content at 0 weeks", "setting": "[1]", "value": 98.2, "unit": "%"}
    ]},
    {"compound": "CCOc1ccccc1OC[C@@H]1CNCCO1", "note": "[Example 11, (S)-viloxazine trifluoroacetate]", "values": [
      {"measurement": "IC50", "setting": "norepinephrine receptor", "value": 33.6, "unit": "µM"},
      {"measurement": "Content after 8 weeks", "setting": "[1]", "value": 98.5, "unit": "%"},
      {"measurement": "Content at 0 weeks", "setting": "[1]", "value": 99.0, "unit": "%"}
    ]},
    {"compound": "CCOc1ccccc1OC[C@@H]1CNCCO1", "note": "[Example 7, (S)-viloxazine sulfate]", "values": [
      {"measurement": "IC50", "setting": "norepinephrine receptor", "value": 29.3, "unit": "µM"},
      {"measurement": "Content after 8 weeks", "setting": "[1]", "value": 98.6, "unit": "%"},
      {"measurement": "Content at 0 weeks", "setting": "[1]", "value": 99.3, "unit": "%"}
    ]},
    {"compound": "CCOc1ccccc1OC[C@@H]1CNCCO1", "note": "[Example 16, (S)-viloxazine methanesulfonate]", "values": [
      {"measurement": "Content after 8 weeks", "setting": "[1]", "value": "98.0 → 98.0%"},
      {"measurement": "Content at 0 weeks", "setting": "[1]", "value": "98.0 → 98.0%"}
    ]},
    {"compound": "CCOc1ccccc1OC[C@@H]1CNCCO1", "note": "[Example 12, (S)-viloxazine oxalate]", "values": [
      {"measurement": "IC50", "setting": "norepinephrine receptor", "value": 34.3, "unit": "µM"},
      {"measurement": "Content after 8 weeks", "setting": "[1]", "value": 98.6, "unit": "%"},
      {"measurement": "Content at 0 weeks", "setting": "[1]", "value": 99.1, "unit": "%"}
    ]},
    {"compound": "CCOc1ccccc1OC[C@@H]1CNCCO1", "note": "[Example 10, (S)-viloxazine acetate]", "values": [
      {"measurement": "IC50", "setting": "norepinephrine receptor", "value": 24.3, "unit": "µM"},
      {"measurement": "Content after 8 weeks", "setting": "[1]", "value": 99.3, "unit": "%"},
      {"measurement": "Content at 0 weeks", "setting": "[1]", "value": 99.6, "unit": "%"}
    ]},
    {"compound": "CCOc1ccccc1OC[C@@H]1CNCCO1", "note": "[Example 13, (S)-viloxazine fumarate]", "values": [
      {"measurement": "IC50", "setting": "norepinephrine receptor", "value": 36.1, "unit": "µM"},
      {"measurement": "Content after 8 weeks", "setting": "[1]", "value": 98.5, "unit": "%"},
      {"measurement": "Content at 0 weeks", "setting": "[1]", "value": 99.0, "unit": "%"}
    ]},
    {"compound": "CCOc1ccccc1OCC1CNCCO1", "note": "(racemic) [Comparative Example 1, (R,S)-viloxazine hydrochloride]", "values": [
      {"measurement": "metabolizing enzyme", "setting": "CYP2D6", "value": "metabolized through the CYP2D6 enzyme"},
      {"measurement": "activity at 5HT2B receptor", "setting": "5HT2B receptor", "value": 5, "unit": "HT2B receptor antagonist"},
      {"measurement": "suicidal ideation or suicide risk", "setting": "[2]; during initial treatment or dosage adjustment", "value": "increased risk of suicidal ideation or suicide"},
      {"measurement": "risk in patients with bipolar disorder", "setting": "[2]; patients with bipolar disorder", "value": "risk of worsening symptoms in patients with bipolar disorder"},
      {"measurement": "most common side effects", "setting": "[2]; patients", "value": "drowsiness, reduced appetite, fatigue, nausea, and insomnia"},
      {"measurement": "heart rate and blood pressure", "setting": "[2]; some of the patients administered viloxazine HCl", "value": "increase in heart rate and blood pressure"},
      {"measurement": "risk of drug abuse, dependence, or withdrawal symptoms", "setting": "[2]; upon treatment discontinuation", "value": "low risk of drug abuse, dependence, or withdrawal symptoms"},
      {"measurement": "route of excretion of metabolites", "setting": "[3]", "value": "majority of its metabolites are excreted through urine"},
      {"measurement": "clinical efficacy in ADHD symptoms", "setting": "[4]", "value": "showed improved symptoms compared to patients who took a placebo"},
      {"measurement": "IC50", "setting": "norepinephrine receptor", "value": 62.9, "unit": "µM"},
      {"measurement": "norepinephrine reuptake inhibition (in words)", "setting": "norepinephrine reuptake; listed as Racemic viloxazine hydrochloride", "value": "selective inhibition of norepinephrine reuptake"},
      {"measurement": "norepinephrine reuptake inhibition (in words)", "setting": "norepinephrine reuptake; hydrochloride", "value": "selectively inhibits norepinephrine reuptake"},
      {"measurement": "effect on dopamine", "setting": "dopamine", "value": "low effect on dopamine"},
      {"measurement": "Content at 0 weeks", "setting": "[1]", "value": 99.5, "unit": "%"},
      {"measurement": "remaining at 1344 h", "setting": "[1]", "value": 98.7, "unit": "%"},
      {"measurement": "Discoloration", "setting": "[1]; hydrochloride", "value": "discolored to an off-white color"},
      {"measurement": "activity at 5-HT2C receptor", "setting": "5-HT2C receptor", "value": "5-HT2C receptor agonist"}
    ]},
    {"compound": "CCOc1ccccc1OC[C@@H]1CNCCO1", "note": "[Example 6, (S)-viloxazine hydrochloride]", "values": [
      {"measurement": "IC50", "setting": "norepinephrine receptor; hydrochloride", "value": 22.5, "unit": "µM"},
      {"measurement": "Content at 0 weeks", "setting": "[1]; hydrochloride", "value": 99.5, "unit": "%"},
      {"measurement": "remaining at 1344 h", "setting": "[1]", "value": 99.2, "unit": "%"}
    ]},
    {"compound": "CCOc1ccccc1OC[C@@H]1CNCCO1", "note": "[Example 8, (S)-viloxazine hydrobromide]", "values": [
      {"measurement": "IC50", "setting": "norepinephrine receptor; hydrobromide", "value": 38.6, "unit": "µM"},
      {"measurement": "Content after 8 weeks", "setting": "[1]; hydrobromide", "value": 99.0, "unit": "%"},
      {"measurement": "Content at 0 weeks", "setting": "[1]; hydrobromide", "value": 99.2, "unit": "%"}
    ]},
    {"compound": "CCOc1ccccc1OC[C@@H]1CNCCO1", "note": "[Example 15, (S)-viloxazine citrate]", "values": [
      {"measurement": "IC50", "setting": "norepinephrine receptor", "value": 40.1, "unit": "µM"},
      {"measurement": "Content after 8 weeks", "setting": "[1]", "value": 98.6, "unit": "%"},
      {"measurement": "Content at 0 weeks", "setting": "[1]", "value": 99.0, "unit": "%"}
    ]},
    {"compound": "CCOc1ccccc1OC[C@@H]1CNCCO1", "note": "[Example 14, (S)-viloxazine maleate]", "values": [
      {"measurement": "IC50", "setting": "norepinephrine receptor", "value": 28.8, "unit": "µM"},
      {"measurement": "Content after 8 weeks", "setting": "[1]", "value": 98.5, "unit": "%"},
      {"measurement": "Content at 0 weeks", "setting": "[1]", "value": 99.1, "unit": "%"}
    ]},
    {"compound": "CCOc1ccccc1OC[C@H]1CNCCO1", "note": "[Comparative Example 2, (R)-viloxazine hydrochloride, reference compound]", "values": [
      {"measurement": "IC50", "setting": "norepinephrine receptor", "value": 108, "unit": "µM"},
      {"measurement": "Content at 0 weeks", "setting": "[1]", "value": 99.2, "unit": "%"},
      {"measurement": "remaining at 1344 h", "setting": "[1]", "value": 98.1, "unit": "%"},
      {"measurement": "Discoloration", "setting": "[1]; hydrochloride", "value": "discolored to an off-white color"}
    ]}
  ]
}
